According to patent publication US4500467A, “Benzoylthio compounds, their preparation and their use as drugs” (BASF Aktiengesellscaft, priority 1982, dated 1985):

Biological target: T1, angiotensin converting enzyme (Rattus norvegicus, UniProt P47820)
T1 construct: from tissue; host or cells: rat blood plasma (ex vivo, after oral dosing)
T1 sequence (P47820 36-1238 limits assumed): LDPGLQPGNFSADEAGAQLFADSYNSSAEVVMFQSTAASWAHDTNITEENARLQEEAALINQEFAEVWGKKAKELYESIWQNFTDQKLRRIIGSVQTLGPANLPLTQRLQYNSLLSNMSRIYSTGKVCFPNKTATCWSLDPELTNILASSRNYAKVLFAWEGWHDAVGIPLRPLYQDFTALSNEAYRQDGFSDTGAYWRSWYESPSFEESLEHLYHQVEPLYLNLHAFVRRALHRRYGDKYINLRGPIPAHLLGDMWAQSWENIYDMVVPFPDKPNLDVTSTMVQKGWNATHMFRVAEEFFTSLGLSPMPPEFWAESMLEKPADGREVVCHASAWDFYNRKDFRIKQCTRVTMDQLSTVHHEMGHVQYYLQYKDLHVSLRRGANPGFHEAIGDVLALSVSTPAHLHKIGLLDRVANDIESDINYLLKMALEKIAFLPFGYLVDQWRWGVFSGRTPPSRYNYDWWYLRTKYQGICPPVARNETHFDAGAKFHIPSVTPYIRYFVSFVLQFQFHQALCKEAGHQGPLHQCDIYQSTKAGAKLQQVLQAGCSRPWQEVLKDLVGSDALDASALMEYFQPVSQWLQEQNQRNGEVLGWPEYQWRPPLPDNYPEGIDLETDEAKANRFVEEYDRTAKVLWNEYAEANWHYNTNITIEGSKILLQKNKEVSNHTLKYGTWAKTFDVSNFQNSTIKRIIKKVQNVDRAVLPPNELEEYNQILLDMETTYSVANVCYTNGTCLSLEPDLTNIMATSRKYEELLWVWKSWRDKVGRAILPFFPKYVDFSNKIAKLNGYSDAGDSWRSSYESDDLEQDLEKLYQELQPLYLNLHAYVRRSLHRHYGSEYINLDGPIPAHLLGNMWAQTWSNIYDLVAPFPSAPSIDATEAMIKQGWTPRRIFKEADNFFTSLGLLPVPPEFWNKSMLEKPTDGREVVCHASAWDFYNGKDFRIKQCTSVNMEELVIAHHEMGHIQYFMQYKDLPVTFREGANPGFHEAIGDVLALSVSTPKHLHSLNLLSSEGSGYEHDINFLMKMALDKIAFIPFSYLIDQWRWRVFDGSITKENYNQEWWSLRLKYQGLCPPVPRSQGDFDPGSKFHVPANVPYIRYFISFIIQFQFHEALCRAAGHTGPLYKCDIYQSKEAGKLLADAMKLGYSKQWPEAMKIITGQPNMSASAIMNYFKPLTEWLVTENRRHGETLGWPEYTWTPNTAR
Experiment: inhibition of angiotensin converting enzyme ex vivo in rats (plasma before and 2 hours after oral administration, 14C-hippuryl-histidylleucine substrate)
Conditions: for angiotensin converting enzyme is inhibited in doses smaller than the captopril dose: compared with captopril dose; for ED50: rat, plasma 2 hours after administration, read-out: ED 50% (dose which produces 50% inhibition of angiotensin converting enzyme); for relative activity: relative to captopril = 1.00, from ED 50%
Experimental: The following method was used in investigating the pharmacodynamic effect (inhibition of angiotensin converting enzyme ex vivo in rats):
Before, and 2 hours after, oral administration of the substance, blood was withdrawn from the animals, and the plasma was diluted 1:6 with H2 O. The diluted plasma (100 μl) was incubated with 50 μl of ^14 C-hippuryl-histidylleucine solution (K phosphate 260 mM, NaCl 938 mM, pH=8.3) for 1 hour at 37° C. The reaction was terminated by adding 2 ml of 0.1N HCl, and the product, ^14 C-hippuric acid, was extracted with toluene scintillator (PPO+POPOP+toluene+21% of isoamyl alcohol) and determined using a scintillation counter for liquids. After subtraction of the blank value (incubation time=0 minute), the percentage inhibition was determined from the enzymatic activities in the plasma before and after administration of the substance. The ED 50%, ie. the dose which produces 50% inhibition, is calculated from the individual inhibitory values by linear regression following logit-log transformation.

angiotensin converting enzyme is inhibited in doses smaller than the captopril dose	ED50	relative activity	Structure (SMILES)
5 times smaller	0.2 mg/kg	5.0	O=C(SC[C@H](SC(=O)c1ccccc1)C(=O)N[C@@H](Cc1c[nH]c2ccccc12)C(=O)O)c1ccccc1 [Example 68, N-[(R)-2,3-Bis-(benzoylthio)-propionyl]-tryptophan]
5 times smaller	0.2 mg/kg	5.0	C[C@H](NC(=O)[C@H](CSC(=O)c1ccccc1)SC(=O)c1ccccc1)C(=O)N1CCC[C@H]1C(=O)O [Example 70, N-[(R)-2,3-Bis-(benzoylthio)-propionyl]-alanylproline]
